From US20020147136A1, “Compounds for targeting endothelial cells, compositions containing the same and methods for their use” (priority 2000, published 2002)
Residues, ends and D or L forms follow the SMILES beside them.

How the values were obtained:
[1] = test system: Human aortic endothelial cells (HAEC); assay: TKPPR-conjugated fluorescent bead binding to HAEC, static; format: cell-based
Procedure: Human aortic endothelial cells (HAEC) from Biowhittaker were grown as monolayers in EGM-MV medium from Biowhittaker according to the supplier's instructions.
Briefly, a frozen cryovial of cells (500,000 cells in about 1 mL) was thawed for 2-3 minutes in a 37° C. water bath and cells were seeded into a T-75 flask coated with collagen I (commercially available) containing 15 mL EGM-MV of medium pre-equilibrated with 5% CO2 atmosphere. Cells were incubated in a standard tissue culture incubator at 37° C. HAEC were subcultured for up to 3 additional passages, using the following protocol:
For binding studies and characterization, pelleted cells were diluted to a concentration of 16,560 cells per mL, and 0.5 mL was seeded into each well of an 8-well chamber slide (Collagen I-coated, Becton Dickinson) to generate a seeding density of 12,000 cells/cm^2. Cells seeded into chamber slides were used for assays after 7 to 10 days, and were not further propagated.
TKPPR (see preparation described in the Example 1) was attached to red fluorescent carboxylate-modified FluoSpheres™ (Molecular Probes), which are 2.0 μm microspheres provided at 3.9×10^9 particles/mL of distilled water. 1.0 mg TKPPR was combined with 0.5 mLof 50 mM MES buffer (2-[N-Morpholino]ethanesulfonic acid, (commercially available), pH 6.0 and 0.2 mL FluoSpheres (7.8×10^8 spheres) in a 1.5 mL Eppendorf snap top, polypropylene centrifuge tube and rotated for 30 min at room temperature (RT). Then 2.8 mg EDAC (1-ethyl-3-(3-dimethylaminopropyl)carbodiimide hydrochloride, (commercially available) in 0.025 mL MES was added and the tube was rotated for 2 h at RT. Following the addition of 0.005 mL 1 N NaOH and 5.7 mg glycine in 0.025 mL MES, the tube was rotated for 30 min more at RT. The beads were then washed by employing three cycles of centrifugation at 14,000 rpm (20,800× g) in an Eppendorf 5417R centrifuge for 15 min, discarding the resulting supernatant, and resuspending in D-PBS. Storage was at 4° C. in 0.4 mL DPBS containing 0.05% NaN3 (final bead concentration was about 1.95×10^9/mL).
Final bead concentration was 1.95×10^7/mL. […]
Bead binding and localization was assessed at 200× magnification using the same microscopy equipment as described above. […] Finally, the processed images were inverted into black on a white background using Scion Image software (version beta 3b) and the integrated density was measured with the whole field selected.
The incubation time was decreased to 15 min on an orbital shaker, and the washes (3) were carried out using D-PBS containing 0.1% Tween 20 (Sigma). […] TKPPR-bead binding was quantitated in three fields, the other bead types were quantitated in one field only. Bound beads were quantitated by manual counting.

[2] = test system: Rabbit aortic endothelial cells (RAEC); assay: Microbubble binding to RAEC in static culture; format: cell-based; settings: free TKPPR 100 μM; 5% bubbles (Composition I of Example 5)
Procedure: Rabbit aortic endothelial cells (RAEC) from Biowhittaker (Cat No. AC-7018, lot 9CC086 from a custom isolation) were obtained frozen on dry ice and stored in liquid nitrogen until thawing. RAEC were cultured and used in bubble binding assays exactly as HAEC (described above), except that EGM2-MV medium (Biowhittaker Cat No. CC-3202) was substituted for EGM-MV.

CC(O)C(N)C(=O)NC(CCCCN)C(=O)N1CCCC1C(=O)N1CCCC1C(=O)NC(CCCNC(=N)N)C(=O)O [TKPPR, L-Arginine, L-threonyl-L-lysyl-L-prolyl-L-prolyl] (H-TKPPR-OH; configuration not given here)
Integrated density of bound beads ([1]; Experiment 1, 1.95×10^7 beads/mL, 30 min, HAEC monolayer): 229.97 arbitrary units | Number of bound beads ([1]; Experiment 2, 4.9×10^6 beads/mL, 15 min, manual counting, TKPPR average of three fields, others one field): 74, 103, 72 (ave. 83) | RAEC bubbles bound [2]: 21
